Measurements taken from ChEMBL document CHEMBL1137324, “Novel selective orally active CRTH2 antagonists for allergic inflammation developed from in silico derived hits” (J Med Chem, 2006).

Experiments:
[1] = target: T1, Prostaglandin D2 receptor 2 (Homo sapiens, UniProt Q9Y5Y4); assay: Displacement of [3H]PGD2 from human CRTH2 receptor expressed in HEK293 cells; format: cell-based
T1 sequence (Q9Y5Y4 whole entry): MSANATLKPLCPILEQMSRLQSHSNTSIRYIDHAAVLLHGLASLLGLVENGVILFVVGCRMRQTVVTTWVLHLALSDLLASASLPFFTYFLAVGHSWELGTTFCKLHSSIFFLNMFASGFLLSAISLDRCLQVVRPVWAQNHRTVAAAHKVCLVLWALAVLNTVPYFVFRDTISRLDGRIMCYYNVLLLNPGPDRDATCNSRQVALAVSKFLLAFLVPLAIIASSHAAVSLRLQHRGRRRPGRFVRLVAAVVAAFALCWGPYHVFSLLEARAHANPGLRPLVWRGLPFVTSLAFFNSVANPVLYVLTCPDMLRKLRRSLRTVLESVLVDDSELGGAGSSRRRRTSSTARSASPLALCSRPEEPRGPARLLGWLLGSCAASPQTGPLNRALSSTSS

[2] = target: T1, Prostaglandin D2 receptor 2; assay: Antagonist activity against CRTH2 receptor measured as inhibition of PGD2-induced beta-arrestin translocation in HEK293 cells by BRET assay; format: functional, cell-based
[3] = system: Mus musculus; assay: Inhibition of peribronchial eosinophilia in BALB/c mouse at 100 mg/kg, po relative to control; format: functional

Structure (SMILES) | IC50 [1] | IC50 [2] | inhibition in vivo at 100 mg/kg [3]
O=C(O)COc1ccc(Br)cc1CO | 886 nM | 6870 nM | –
O=C(O)COc1ccc(Br)cc1/C=N/Nc1ccccn1 | 255 nM | 3490 nM | –
O=C(O)COc1ccc(Br)cc1/C=N/Nc1nncc(-c2ccccc2)n1 | 89 nM | 3210 nM | –
Cc1cc(C(=O)N/N=C/c2ccccc2OCC(=O)O)[nH]n1 | 11200 nM | > 100000 nM | –
O=C(O)COc1ccccc1/C=N/NC(=O)COc1ccc(Cl)cc1Cl | 555 nM | 6320 nM | –
C[C@]12CCC(=O)C=C1CC[C@@H]1[C@@H]2[C@@H](O)C[C@@]2(C)[C@H]1CC[C@]2(O)C(=O)CO [HYDROCORTISONE] | – | – | 94%
O=C(O)COc1ccc(Br)cc1/C=N/Nc1cccc2cccnc12 | 54 nM | 643 nM | –
CC(C)(C)c1cc(Br)ccc1OCC(=O)O | 61 nM | 423 nM | –
O=C(O)COc1ccccc1/C=N/NC(=O)Cn1cnc2ccccc21 | 12800 nM | 81700 nM | –
O=Cc1cc(Br)ccc1OCC(=O)O | 124 nM | 481 nM | –
O=Cc1ccccc1OCC(=O)O | 1970 nM | 50000 nM | –
COc1ccc(-c2cnnc(N/N=C/c3ccccc3OCC(=O)O)n2)cc1 | 1580 nM | > 100000 nM | –
CC(=O)c1cc(Br)ccc1OCC(=O)O | 510 nM | 4520 nM | –
Cc1ccc(NCC(=O)N/N=C/c2ccccc2OCC(=O)O)cc1 | 3660 nM | 60200 nM | –

More lines, main results first:

IC50 [1] | IC50 [2] | Structure (SMILES) | inhibition in vivo at 100 mg/kg [3]
47 nM | 236 nM | O=C(O)COc1ccc([N+](=O)[O-])cc1C(=O)c1cnn(-c2ccccc2)c1 | –
48 nM | 587 nM | Cc1ccc(OCC(=O)O)c(C(=O)c2cnn(-c3ccccc3)c2)c1 | –
53 nM | 437 nM | O=C(O)COc1ccc(Br)cc1C(=O)c1ccccc1 | –
510 nM | 5350 nM | O=C(O)COc1ccccc1C(=O)c1cnn(-c2ccccc2)c1 | –
1.5 nM | 17 nM | O=C(O)COc1ccc(Br)cc1C(=O)c1cnn(-c2ccc(Cl)cc2)c1 | –
108 nM | 1320 nM | O=C(O)COc1ccc(F)cc1C(=O)c1cnn(-c2ccccc2)c1 | –
151 nM | 4200 nM | COc1ccc(OCC(=O)O)c(C(=O)c2cnn(-c3ccccc3)c2)c1 | –
13 nM | 147 nM | O=C(O)COc1ccc(-c2cc(F)cc(F)c2)cc1C(=O)c1cnn(-c2ccccc2)c1 | –
42 nM | 485 nM | O=C(O)COc1ccc(-c2ccccc2)cc1C(=O)c1cnn(-c2ccccc2)c1 | –
1.9 nM | 12 nM | O=C(O)COc1ccc(Br)cc1C(=O)c1cnn(-c2ccccc2Br)c1 | –
3.6 nM | 53 nM | COc1ccc(-n2cc(C(=O)c3cc(Br)ccc3OCC(=O)O)cn2)cc1 | –
37 nM | 448 nM | O=C(O)COc1ccc(-c2ccc(Cl)cc2)cc1C(=O)c1cnn(-c2ccccc2)c1 | –
165 nM | 3000 nM | CCOC(=O)COc1ccc(Br)cc1C(=O)c1cnn(-c2ccccc2)c1 | –
3.4 nM | 31 nM | O=C(O)COc1ccc(Br)cc1C(=O)c1cnn(-c2cccc(Br)c2)c1 | –
391 nM | 2650 nM | O=C(O)COc1ccc(Br)cc1C(=O)c1ccno1 | –
1.4 nM | 13 nM | O=C(O)COc1ccc(Br)cc1C(=O)c1cnn(-c2ccc(Br)cc2)c1 | –
15 nM | 185 nM | O=C(O)COc1ccc(Cl)cc1C(=O)c1cnn(-c2ccccc2)c1 | –
